The test system of this assay is P. acnes strains. The experiment in a line: Porphyrin production by P. acnes strains in culture media (iron/cobalt supplemented or depleted). Format: cell-based, Propionibacterium acnes.

Each structure is given as a SMILES string.

Data on two compounds can be found in patent US20220257646A1, “COMPOSITIONS AND METHODS FOR TREATING SKIN CONDITIONS” (The Regents of the University of California, priority 2019, published 2022).

As to `[Co]` [cobalt], the porphyrin production result (depletion of cobalt, P. acnes (FIG. 5)) was “significantly promoted the porphyrin production”.
Regarding `[Fe]` [iron], the porphyrin production entry was “reduces porphyrin production” (acne associated P. acnes strains (FIG. 4)); “increases porphyrin production” (iron depletion, acne associated P. acnes strains (FIG. 6)); “low porphyrin production” (iron supplemented in the media, P. acnes strains (FIG. 1)). For the same compound, the “chelator effect on porphyrin production” value (iron added back to iron depleted (chelated) media, P. acnes strains (FIG. 4)) is “diminishes chelator effect”. Moreover, the “effect of iron depletion on porphyrin production” value (vitamin B12 supplemented conditions, acne associated P. acnes strains (FIG. 6)) is reported as “remains”.
